Data: patent US9221810B2, “Substituted bicyclic aromatic compounds as S-nitrosoglutathione reductase inhibitors” (Nivalis Therapeutics, Inc., priority 2010, dated 2015)

Columns and labels:
[1] = system: mouse model of ovalbumin (OVA)-induced asthma; test: Mouse model of ovalbumin (OVA)-induced asthma: MCh-induced AHR (Penh) and eosinophil infiltrate in BALF; format: in vivo; settings: three oral doses of 10 mg/kg at 48 h, 24 h, and 1 h prior to assessment; p<0.05
Protocol: A mouse model of ovalbumin (OVA)-induced asthma was used to screen GSNOR inhibitors for efficacy against methacholine (MCh)-induced bronchoconstriction/airway hyper-responsiveness. This is a widely used and well characterized model that presents with an acute, allergic asthma phenotype with similarities to human asthma. Efficacy of GSNOR inhibitors was assessed using a protocol in which GSNOR inhibitors were administered after OVA sensitization and airway challenge, and prior to challenge with MCh. Bronchoconstriction in response to challenge with increasing doses of MCh was assessed using whole body plethysmography (Penh; Buxco). The amount of eosinophil infiltrate into the bronchoaveolar lavage fluid (BALF) was also determined as a measure of lung inflammation. The effects of GSNOR inhibitors were compared to vehicles and to Combivent (inhaled; IH) as the positive control.
OVA (500 μg/ml) in PBS was mixed with equal volumes of 10% (w/v) aluminum potassium sulfate in distilled water and incubated for 60 min. at room temperature after adjustment to pH 6.5 using 10 N NaOH. After centrifugation at 750×g for 5 min, the OVA/alum pellet was resuspended to the original volume in distilled water. Mice received an intraperitoneal (IP) injection of 100 μg OVA (0.2 mL of 500 μg/mL in normal saline) complexed with alum on day 0. Mice were anesthetized by IP injection of a 0.2-mL mixture of ketamine and xylazine (0.44 and 6.3 mg/mL, respectively) in normal saline and were placed on a board in the supine position. Two hundred fifty micrograms (100 μl of a 2.5 mg/ml) of OVA (on day 8) and 125 μg (50 μl of 2.5 mg/ml) OVA (on days 15, 18, and 21) were placed on the back of the tongue of each animal.
In vivo airway responsiveness to methacholine was measured 24 h after the last OVA challenge in conscious, freely moving, spontaneously breathing mice with whole body plethysmography using a Buxco chamber (Wilmington, N.C.). […] The degree of bronchoconstriction was expressed as enhanced pause (Penh), a calculated dimensionless value, which correlates with the measurement of airway resistance, impedance, and intrapleural pressure in the same mouse. Penh readings were taken and averaged for 4 min. after each nebulization challenge. Penh is calculated as follows: Penh=[(Te/Tr−1)×(PEF/PIF)], where Te is expiration time, Tr is relaxation time, PEF is peak expiratory flow, and PIF is peak inspiratory flow×0.67 coefficient. […]
After measurement of airway hyper-reactivity, the mice were exsanguinated by cardiac puncture, and then BALF was collected from either both lungs or from the right lung after tying off the left lung at the mainstem bronchus. Total BALF cells were counted from a 0.05 mL aliquot, and the remaining fluid was centrifuged at 200×g for 10 min at 4° C. […]

[2] = system: acute dextran sodium sulfate (DSS)-induced IBD; test: Acute prophylactic model of DSS-induced IBD in mice; format: in vivo, male C57Bl/6 mice
Source text: Acute and chronic models of dextran sodium sulfate (DSS)-induced IBD in mice were used to explore efficacy of GSNORi against this disease. Acute and chronic DSS-induced IBD are widely used and well characterized models that induce pathological changes in the colon similar to those observed in the human disease. In these models and in human disease, epithelial cells within the crypts of the colon are disrupted, leading to dysfunction of the epithelial barrier and the ensuing tissue inflammation, edema, and ulceration. GSNORi therapy may benefit IBD by restoring s-nitrosoglutathione (GSNO) levels, and thus prevent or reverse the epithelial barrier dysfunction. Experimental IBD was induced by administration of DSS in the drinking water of male C57Bl/6 mice (N=8 to 10 mice per group) for 6 consecutive days. GSNORi was dosed orally at doses of 0.1 to 10 mg/kg/day for 10 days starting two days prior to and continuing two days post DSS exposure. Two days post DSS exposure, the effect of GSNORi was assessed in a blinded fashion via endoscopy and histopathology using a five point scale ranging from a score=0 (normal tissue) through a score=4 (ulcerative tissue damage and marked pathological changes). Levels of circulating cytokines involved in inflammatory pathways were also assessed. The effect of GSNORi was compared to vehicle treated controls. The corticosteroid, prednisolone, was used as the positive control in this study and was administered daily at 3 mg/kg/day via oral dosing. Naïve mice (N=5) were also assessed as a normal tissue control.

[3] = oral 10 mg/kg/day for 10 consecutive days, prophylactic

O=C(O)c1ccc(-c2ccc3cc(O)ccc3n2)cc1 [Example 3, 4-(6-hydroxyquinolin-2-yl)benzoic acid]
decrease of eosinophil infiltration in BAL [1]: 42 % of vehicle control | circulating inflammatory cytokines ([2]; acute DSS model, oral dosing): restored circulating inflammatory cytokines towards levels observed in untreated naïve mice | effects compared to prednisolone (positive control) ([2]; prednisolone 3 mg/kg/day oral): comparable to or greater than those observed for prednisolone

O=C(O)c1ccc(-c2ccc3cc(O)ccc3n2)c(Cl)c1 [Example 8, 3-chloro-4-(6-hydroxyquinolin-2-yl)benzoic acid]
decrease of eosinophil infiltration in BAL [1]: 37 % of vehicle control | decrease of percent of mice with severe colon injury scores via endoscopy [2, 3]: 44 % of vehicle control | decrease of percent of mice with severe colon injury scores via histopathology [2, 3]: 26 % of vehicle control
